The subject of one experiment is BxPC3 cells. Description: Transcytosis transport in tumor cells. In kind it is cell-based, human. To be noted: BxPC3 cells pretreated with EXO1 20 μM; serum-containing medium, with ultrasound stimulation. The method, then: BxPC3 cells (1×10^5 cells/mL, 1 mL) were cultured in a confocal dish for 24 h, and the culture medium was then replaced with 1 mL fresh serum-free medium. Next, the mixture of Cy5-labeled GL, LGL, PGL or LPGL liposome (equivalent to fluorescent lipids of 60 μg/mL, 20 μL) and serum-containing medium or serum-free medium was respectively added into the confocal dish, and subsequently treated with or without ultrasound stimulation (acoustic intensity: 2 W/cm^2, frequency: 3 MHz, duty cycle: 50%, duration time: 5 min). After incubation of 3 h, the dishes were washed twice with PBS. A total of 1×10^5 fresh cells in 1 mL of fresh serum-free medium was added to the dishes. The mixed cells were continuously incubated for 0 min, 30 min, and 120 min. The transcellular transport of liposome from previously added cells to newly added cells was photographed at incubation time of 0 min, 30 min, and 120 min with a CLSM using 640 nm excitation wavelength. Then the newly added cells at 120 min of incubation were washed away and collected into a centrifugal tube, and detected using flow cytometry. Meanwhile, BxPC3 cells pretreated with an exocytosis inhibitor EXO1 (20 μM) were tested using the same method to investigate the inhibition of transcellular transport.

In experiment [1] the test system is 3D multicellular tumor spheroids of BxPC3. Description: Penetration in tumor spheroids (CLSM). In kind it is cell-based, human. The note with it: EXO1 20 μM pretreatment. The protocol: The 3D multicellular tumor spheroids of BxPC3 pretreated with or without exocytosis inhibitor EXO1 (20 μM) were transferred to a confocal dish containing fresh serum-free medium. The mixture of Cy5-labeled LPGL, PGL, LGL or GL liposome (equivalent to fluorescent lipids of 60 μg/mL, 30 μL) and fresh serum-containing medium were added, and treated with ultrasound stimulation (acoustic intensity: 2 W/cm^2, frequency: 3 MHz, duty cycle: 50%, duration time: 5 min), then incubated for 6 h. After washing with PBS, images were obtained with CLSM in XYZ-3D-stack at 25-μm intervals from apex to equator.

As to `COC(=O)c1ccccc1NC(=O)c1ccc(F)cc1` [EXO1], the “effect on transcytosis transport of LPGL liposome” value in the experiment with BxPC3 cells was “could be inhibited”. The “effect on permeability of LPGL liposome into the 3D spheroid of BxPC3” value in experiment [1] was “could significantly inhibit the permeability of LPGL liposome”.

The record behind these values is patent publication US20240094197A1, “Method for removing protein corona of the surface of nanometer particle” (ZHEJIANG UNIVERSITY, priority 2022, published 2024).
